Tests used:
K-562 = experiment: NCI-60 antiproliferative screen (SRB); format: cell-based, human; details: Homo sapiens, K562; 10 µM single dose, 48 h; K-562 (Leukemia); read-out: Growth inhibition (%)
HOP-62 = experiment: NCI-60 antiproliferative screen (SRB); format: cell-based, human; details: Homo sapiens; 10 µM single dose, 48 h; HOP-62 (NSCLC); read-out: Growth inhibition (%)
HOP-92 = experiment: NCI-60 antiproliferative screen (SRB); format: cell-based, human; details: Homo sapiens; 10 µM single dose, 48 h; HOP-92 (NSCLC); read-out: Growth inhibition (%)
NCI-H23 = experiment: NCI-60 antiproliferative screen (SRB); format: cell-based, human; details: Homo sapiens; 10 µM single dose, 48 h; NCI-H23 (NSCLC); read-out: Growth inhibition (%)
NCI-H322M = experiment: NCI-60 antiproliferative screen (SRB); format: cell-based, human; details: Homo sapiens; 10 µM single dose, 48 h; NCI-H322M (NSCLC); read-out: Growth inhibition (%)
COLO 205 = experiment: NCI-60 antiproliferative screen (SRB); format: cell-based, human; details: Homo sapiens; 10 µM single dose, 48 h; COLO 205 (Colon); read-out: Growth inhibition (%)
HCC-2998 = experiment: NCI-60 antiproliferative screen (SRB); format: cell-based, human; details: Homo sapiens; 10 µM single dose, 48 h; HCC-2998 (Colon); read-out: Growth inhibition (%)
HCT-116 = experiment: NCI-60 antiproliferative screen (SRB); format: cell-based, human; details: Homo sapiens; 10 µM single dose, 48 h; HCT-116 (Colon); read-out: Growth inhibition (%)
HT29 = experiment: NCI-60 antiproliferative screen (SRB); format: cell-based, human; details: Homo sapiens, HT-29; 10 µM single dose, 48 h; HT29 (Colon); read-out: Growth inhibition (%)
SW-620 = experiment: NCI-60 antiproliferative screen (SRB); format: cell-based, human; details: Homo sapiens; 10 µM single dose, 48 h; SW-620 (Colon); read-out: Growth inhibition (%)
SF-295 = experiment: NCI-60 antiproliferative screen (SRB); format: cell-based, human; details: Homo sapiens; 10 µM single dose, 48 h; SF-295 (CNS); read-out: Growth inhibition (%)
SF-539 = experiment: NCI-60 antiproliferative screen (SRB); format: cell-based, human; details: Homo sapiens; 10 µM single dose, 48 h; SF-539 (CNS); read-out: Growth inhibition (%)
U251 = experiment: NCI-60 antiproliferative screen (SRB); format: cell-based, human; details: Homo sapiens, U-251; 10 µM single dose, 48 h; U251 (CNS); read-out: Growth inhibition (%)
M14 = experiment: NCI-60 antiproliferative screen (SRB); format: cell-based, human; details: Homo sapiens; 10 µM single dose, 48 h; M14 (Melanoma); read-out: Growth inhibition (%)
MDA-MB-435 = experiment: NCI-60 antiproliferative screen (SRB); format: cell-based, human; details: Homo sapiens; 10 µM single dose, 48 h; MDA-MB-435 (Melanoma); read-out: Growth inhibition (%)
SK-MEL-2 = experiment: NCI-60 antiproliferative screen (SRB); format: cell-based, human; details: Homo sapiens; 10 µM single dose, 48 h; SK-MEL-2 (Melanoma); read-out: Growth inhibition (%)
SK-MEL-5 = experiment: NCI-60 antiproliferative screen (SRB); format: cell-based, human; details: Homo sapiens; 10 µM single dose, 48 h; SK-MEL-5 (Melanoma); read-out: Growth inhibition (%)
IGROV1 = experiment: NCI-60 antiproliferative screen (SRB); format: cell-based, human; details: Homo sapiens, IGROV-1; 10 µM single dose, 48 h; IGROV1 (Ovarian); read-out: Growth inhibition (%)
NCI/ADR-RES = experiment: NCI-60 antiproliferative screen (SRB); format: cell-based, human; details: Homo sapiens; 10 µM single dose, 48 h; NCI/ADR-RES (Ovarian); read-out: Growth inhibition (%)
786-0 = experiment: NCI-60 antiproliferative screen (SRB); format: cell-based, human; details: Homo sapiens; 10 µM single dose, 48 h; 786-0 (Renal); read-out: Growth inhibition (%)
RXF 393 = experiment: NCI-60 antiproliferative screen (SRB); format: cell-based, human; details: Homo sapiens; 10 µM single dose, 48 h; RXF 393 (Renal); read-out: Growth inhibition (%)
SN12C = experiment: NCI-60 antiproliferative screen (SRB); format: cell-based, human; details: Homo sapiens; 10 µM single dose, 48 h; SN12C (Renal); read-out: Growth inhibition (%)
TK-10 = experiment: NCI-60 antiproliferative screen (SRB); format: cell-based, human; details: Homo sapiens; 10 µM single dose, 48 h; TK-10 (Renal); read-out: Growth inhibition (%)
PC-3 = experiment: NCI-60 antiproliferative screen (SRB); format: cell-based, human; details: Homo sapiens; 10 µM single dose, 48 h; PC-3 (Prostate); read-out: Growth inhibition (%)
MDA-MB-231 = experiment: NCI-60 antiproliferative screen (SRB); format: cell-based, human; details: Homo sapiens; 10 µM single dose, 48 h; MDA-MB-231 (Breast); read-out: Growth inhibition (%)
HS 578T = experiment: NCI-60 antiproliferative screen (SRB); format: cell-based, human; details: Homo sapiens; 10 µM single dose, 48 h; HS 578T (Breast); read-out: Growth inhibition (%)
T-47D = experiment: NCI-60 antiproliferative screen (SRB); format: cell-based, human; details: Homo sapiens, T47D; 10 µM single dose, 48 h; T-47D (Breast); read-out: Growth inhibition (%)
[1] = test system: NCI-60 human cancer cell lines; experiment: NCI-60 screen, full panel summary; format: cell-based; details: 10 µM single dose; for Mean Growth Percent: all NCI-60 cell lines
Procedure: In a comprehensive test, compounds were assayed at a single dose concentration (10^−5 M) in the full panel of NCI-60 cancer cell lines.

SNB-75 = experiment: NCI-60 antiproliferative screen (SRB); details: Homo sapiens, SNB-75, 48 h, read-out: Growth inhibition (%)

Compound	inhibition at 10 µM (K-562) [%]	inhibition at 10 µM (HOP-62) [%]	inhibition at 10 µM (HOP-92) [%]	inhibition at 10 µM (NCI-H23) [%]	inhibition at 10 µM (NCI-H322M) [%]	inhibition at 10 µM (COLO 205) [%]	inhibition at 10 µM (HCC-2998) [%]	inhibition at 10 µM (HCT-116) [%]	inhibition at 10 µM (HT29) [%]	inhibition at 10 µM (SW-620) [%]	inhibition at 10 µM (SF-295) [%]	inhibition at 10 µM (SF-539) [%]	inhibition at 10 µM (U251) [%]	inhibition at 10 µM (M14) [%]	inhibition at 10 µM (MDA-MB-435) [%]	inhibition at 10 µM (SK-MEL-2) [%]	inhibition at 10 µM (SK-MEL-5) [%]	inhibition at 10 µM (IGROV1) [%]	inhibition at 10 µM (NCI/ADR-RES) [%]	inhibition at 10 µM (786-0) [%]	also measured
O=C1Nc2cc(Cl)ccc2C1=Cc1ccc(OCc2ccccc2)cc1 (mixture of isomers) [Compound 5d, (E/Z)-3-[4-(Benzyloxy)benzylidene]-6-chloroindolin-2-one]	6.91	3.85	-8.67	5.71	0.49	-9.74	-1.79	2.33	-5.27	0.6	-14.7	5.48	-4.25	3.83	0.59	-11.3	2.83	8.41	-4.24	-4.97	inhibition at 10 µM (RXF 393): -14.2%; inhibition at 10 µM (SN12C): 4.03%; inhibition at 10 µM (TK-10): -54%; inhibition at 10 µM (PC-3): 11.8%; inhibition at 10 µM (MDA-MB-231): -3.65%; inhibition at 10 µM (HS 578T): 3.27%; inhibition at 10 µM (T-47D): 4.32%; Positive Cytostatic Effect (cell lines with percent growth from 0 to 50 / total number of cell lines) [1]: 0/59; Positive Cytotoxic Effect (cell lines with percent growth of <0 / total number of cell lines) [1]: 0/59; Sensitive/Total Cell Lines [1]: 0/59; antiproliferative activity (in words) [1]: weak antiproliferative activity; Mean Growth Percent [1]: 0.13; inhibition at 10 µM ([1]; Homo sapiens, read-out: Range of Growth Inhibition on All Cells): -54 to 38.4%; melting point: 259 to 261 °C; inhibition at 10 µM (SNB-75): 26.7%
O=C1Nc2ccc(F)cc2C1=Cc1ccc(OCc2ccccn2)cc1 (mixture of isomers) [Compound 5f, (E/Z)-5-fluoro-3-[4-(pyridin-2-ylmethoxy)benzylidene]indolin-2-one]	14.6	-7.71	32.9	28	3.29	-10.8	-20.2	57.8	-0.51	-2.79	1.98	47.7	41.8	-5.09	-2.77	-3.45	-5.85	6.35	21.7	16.6	inhibition at 10 µM (RXF 393): 24.2%; inhibition at 10 µM (SN12C): 4.04%; inhibition at 10 µM (TK-10): 4.47%; inhibition at 10 µM (PC-3): 8.7%; inhibition at 10 µM (MDA-MB-231): 14.9%; inhibition at 10 µM (HS 578T): 21.9%; inhibition at 10 µM (T-47D): 60.7%; Positive Cytostatic Effect (cell lines with percent growth from 0 to 50 / total number of cell lines) [1]: 3/59; Positive Cytotoxic Effect (cell lines with percent growth of <0 / total number of cell lines) [1]: 0/59; Sensitive/Total Cell Lines [1]: 3/59; The Most Sensitive Cell Line [1]: NCI-H522; Mean Growth Percent [1]: 13.74; melting point: 226 to 228 °C; inhibition at 10 µM (SNB-75): 10.2%
O=C1Nc2ccccc2C1=Cc1ccc(OCc2ccncc2)cc1 (mixture of isomers) [Compound 5m, (E/Z)-3-[4-(Pyridin-4-ylmethoxy)benzylidene] indolin-2-one]	62.7	23	40.2	49.8	20.9	38.3	20.6	40.5	11.2	22	58.3	24.9	38.9	23.7	49.6	27.2	90	25.4	61.8	14.6	inhibition at 10 µM (RXF 393): 43.9%; inhibition at 10 µM (SN12C): 21.4%; inhibition at 10 µM (TK-10): 17.9%; inhibition at 10 µM (PC-3): 46%; inhibition at 10 µM (MDA-MB-231): 16.6%; inhibition at 10 µM (HS 578T): 17.9%; inhibition at 10 µM (T-47D): 65.1%; Positive Cytostatic Effect (cell lines with percent growth from 0 to 50 / total number of cell lines) [1]: 14/59; Positive Cytotoxic Effect (cell lines with percent growth of <0 / total number of cell lines) [1]: 0/59; Sensitive/Total Cell Lines [1]: 14/59; The Most Sensitive Cell Line [1]: MDA-MB-468; number of cell lines with cytostatic effects [1]: 14; Mean Growth Percent [1]: 38.04; melting point: 238 to 240 °C; inhibition at 10 µM (SNB-75): 35.2%
O=C1Nc2ccc(F)cc2C1=Cc1ccc(OCc2ccncc2)cc1 (mixture of isomers) [Compound 5n, (E/Z)-5-Fluoro-3-[4-(pyridin-4-ylmethoxy)benzylidene] indolin-2-one]	79.3	17	36.9	58.6	27.6	22.1	25.7	56.1	36.4	41.1	51.7	41.7	61.3	32.5	61.7	28.1	93.1	64.7	74.2	19.4	inhibition at 10 µM (RXF 393): 47.6%; inhibition at 10 µM (SN12C): 41.3%; inhibition at 10 µM (TK-10): 29.9%; inhibition at 10 µM (PC-3): 47.4%; inhibition at 10 µM (MDA-MB-231): 20.7%; inhibition at 10 µM (HS 578T): 28.9%; inhibition at 10 µM (T-47D): 64.3%; Positive Cytostatic Effect (cell lines with percent growth from 0 to 50 / total number of cell lines) [1]: 26/59; Positive Cytotoxic Effect (cell lines with percent growth of <0 / total number of cell lines) [1]: 0/59; Sensitive/Total Cell Lines [1]: 26/59; The Most Sensitive Cell Line [1]: SK-MEL-5; number of cell lines with cytostatic effects [1]: 26; Mean Growth Percent [1]: 46.02; melting point: 233 to 235 °C; inhibition at 10 µM (SNB-75): 26.6%
